Reference: paper PMC10793205, “Differential transmetallation of complexes of the anti-cancer thiosemicarbazone, Dp4e4mT: effects on anti-proliferative efficacy, redox activity, oxy-myoglobin and oxy-hemoglobin oxidation” (Chemical Science, 2023)
Where two headings read alike, the source gives them in different places.

Tests used:
[1] = system: SK-N-MC and AsPC-1 cells; test: MTT cellular proliferation assay, values stated over both tumor cell-types; format: cell-based, human; details: for Mean therapeutic index: average of the therapeutic indices for SK-N-MC and AsPC-1 vs MRC-5, 72 h/37 °C; for IC50: SK-N-MC and AsPC-1, after 72 h, read-out: IC50 (range over both cell-types)
Experimental: The anti-proliferative activity of Dp4e4mT relative to its complexes with Fe(III), Co(III), Ni(II), Cu(II), Zn(II), Ga(III), and Pd(II) was examined over incubation periods of 24-, 48-, and 72 h/37 °C (Table 2). These studies were performed using human SK-N-MC neuroepithelioma and AsPC-1 pancreatic adenocarcinoma cells that we have previously examined to assay other ligands.[15,28,43]
To examine the selectivity of the Dp4e4mT complexes against neoplastic versus normal mortal cells, their anti-proliferative efficacy was compared to mortal MRC-5 fibroblasts after a 72 h/37 °C incubation (Table 3). […] To further examine selectivity, an in vitro therapeutic index was calculated as per our previous investigations.[28,57,59,66,67] This parameter is derived from the ratio of the IC50 of MRC-5 cells/IC50 of SK-N-MC or AsPC-1 cells; with high ratios indicating greater selective anti-proliferative activity against neoplastic cells (Table 3). The mean therapeutic index is the average of the therapeutic indices calculated for both tumor cell-types. […] The mean therapeutic index of Dp4e4mT exceeded that obtained for clinically trialed DpC (157), as well as that of Dp44mT (112) and DFO (6). […]
All cell lines were procured from the American Type Culture Collection (ATCC; Manassas, VA). The SK-N-MC neuroepithelioma cell line and the mortal MRC-5 fibroblasts were cultured in minimum essential medium (Sigma-Aldrich), while the AsPC-1 cell line was cultured in Roswell Park Memorial Institute 1640 medium (Thermo Fisher Scientific, MA, USA). Both media were supplemented with 10% fetal calf serum, non-essential amino acids (1 mM), sodium pyruvate (1 mM), L-glutamine (2 mM), penicillin (100 U/mL), streptomycin (100 U/mL), and Fungizone (0.5 µg/mL). Cells were maintained at 37 °C in an incubator under a humidified atmosphere with 5% CO 2, following established protocols. 11 Cellular Proliferation Assay
Cellular proliferation was evaluated through the established 3-(4,5-dimethylthiazol-2-yl)-2,5-diphenyltetrazolium bromide (MTT) proliferation assay, validated by viable cell counts.12 […]
Ligands and complexes were dissolved in DMSO to make a stock solution of 10 mM, subsequently diluted in culture media. For cell culture experiments, the DMSO's maximum concentration remained below 0.5% (v/v), with no discernible impact on proliferation.12 MTT […]
Trypan blue staining.12 Analysis of the data was executed employing MARS Data Analysis Software (BMG LabTech; version 3.30). The concentration of agents necessary to inhibit cellular proliferation by 50% (IC 50) was then calculated. […]

[2] = biological target: oxy-Hb (Homo sapiens, UniProt P68871+P69905); test: Oxidation of purified oxy-Hb to met-Hb (UV-vis); format: biochemical; details: 10 μM agent, oxy-Hb 40 μM, 1–3 h/20 °C
Source text: As such, it was important to examine the effect of the Dp4e4mT complexes on oxy-Hb and oxy-Mb oxidation (Fig. 6 and 7). Comparisons were made to three controls, namely DFO, Dp44mT, and DpC, as well as their Fe(III) complexes. […] In contrast, the Fe(III) complexes of Dp44mT and DpC were positive controls, as they induce oxidation of oxy-Mb.[28,39,42]
Fig. 7 (A and B) Investigation of the effects of Dp4e4mT and its Fe(III), Co(III), Ni(II), Cu(II), Zn(II), Ga(III), and Pd(II) complexes versus DFO, Dp44mT, DpC and their Fe(III) complexes (10 μM) on met-Hb generation (% zero time) after an incubation of 1–3 h/20 °C with purified oxy-Hb (40 μM). (C) Investigation of the effects of Dp4e4mT and its Fe(III), Co(III), Ni(II), Cu(II), Zn(II), Ga(III), or Pd(II) complexes relative to the positive controls DFO, Dp44mT, DpC, and their Fe(III) complexes (10 μM) on oxy-Hb oxidation in intact human erythrocytes after a 3 h/37 °C incubation. Results are mean ± SD (3 experiments).
Spectroscopic Examination of Met-Mb and Met-Hb Formation from Oxy-Mb and Oxy- […]
Oxy-Mb and oxy-Hb solutions were prepared following established protocols.8, 17 In brief, solutions of reduced Mb and Hb in PBS (pH 7.2) were prepared by adding 1.2 mL of Na2S2O4 (12 mM) to 38 mL of met-Mb and met-Hb solution (40 μM). 17 Subsequently, oxy-Mb and oxy-Hb were generated by gently passing 150 mL of oxygen (from an air-filled syringe) through the solution containing reduced Mb and Hb, effectively eliminating any residual Na2S2O4. Following this, the oxy-Mb and oxy-Hb solutions were passed through a PD-10 column prepacked with 8.3 mL of Sephadex G-25 and equilibrated with PBS (pH 7.2). 17 In experiments examining the activity of the agents, all complexes were dissolved in 1,2-propanediol, then diluted to 10 µM in PBS (pH 7.2). The experiments were conducted over incubations of 0 to 3 h with the agents. UV-Vis spectra covering the range of 300 to 700 nm were recorded at a temperature of 20°C using a Shimadzu UV−Vis spectrophotometer (UV-1800; Shimadzu, Kyoto, Japan). Concentrations of met-Mb and met-Hb, as well as reduced-Mb and reduced-Hb, were determined at 409 nm and 435 nm, respectively. Concentrations of oxy-Mb and oxy-Hb were determined at 544 nm and 582 nm, respectively. 17

[3] = listed as Dp4e4mT Co(III) complex
[4] = listed as Dp4e4mT Pd(II) complex

Sequence of oxy-Hb (P69905 2-142 limits assumed): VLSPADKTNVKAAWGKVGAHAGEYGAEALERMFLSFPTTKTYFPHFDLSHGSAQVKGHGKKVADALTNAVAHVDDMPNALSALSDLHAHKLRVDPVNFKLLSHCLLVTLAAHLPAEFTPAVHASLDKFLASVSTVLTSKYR
Sequence of oxy-Hb (P68871 2-147 limits assumed): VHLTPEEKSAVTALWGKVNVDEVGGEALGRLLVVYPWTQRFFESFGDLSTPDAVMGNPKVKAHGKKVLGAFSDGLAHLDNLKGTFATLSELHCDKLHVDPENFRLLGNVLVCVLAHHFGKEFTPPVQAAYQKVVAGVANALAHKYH

IC50 [1] | Compound | Mean therapeutic index [1] | oxy-Hb oxidation, purified oxy-Hb (in words) [2] | further results
 | CCN(C)C(=S)NN=C(c1ccccn1)c1ccccn1 [Dp4e4mT, di-2-pyridylketone-4-ethyl-4-methyl-3-thiosemicarbazone] | 210 |  | 
 | CN(C)C(=S)NN=C(c1ccccn1)c1ccccn1 [Dp44mT, di-2-pyridylketone 4,4-dimethyl-3-thiosemicarbazone, reference compound] | 112 |  | 
 | CN(C(=S)NN=C(c1ccccn1)c1ccccn1)C1CCCCC1 [DpC, di-2-pyridylketone 4-cyclohexyl-4-methyl-3-thiosemicarbazone, reference compound] | 157 |  | IC50 ([1]; Homo sapiens): 18 to 28 nM
818 to 1570 nM | CCN(C)C([S-])=NN=C(c1ccccn1)c1ccccn1.CCN(C)C([S-])=NN=C(c1ccccn1)c1ccccn1.[Co+3] [[Co(Dp4e4mT)2]^+] | 3 | minimal impact | oxy-Hb oxidation, purified oxy-Hb (in words) [2, 3]: low levels of oxy-Hb oxidation; IC50 [1, 3]: 262 to 1570 nM; Mean therapeutic index [1, 3]: 3–9
 | CCN(C)C([S-])=NN=C(c1ccccn1)c1ccccn1.[Cl-].[Cu+2] [[Cu(Dp4e4mT)Cl]] | 130 | lowest ability to oxidize oxy-Mb and oxy-Hb | 
 | CCN(C)C([S-])=NN=C(c1ccccn1)c1ccccn1.CCN(C)C([S-])=NN=C(c1ccccn1)c1ccccn1.[Fe+3] [[Fe(Dp4e4mT)2]^+] | 9 |  | Mean therapeutic index ([1]; listed as Dp4e4mT Fe(III) complex): 3–9
 | CCN(C)C([S-])=NN=C(c1ccccn1)c1ccccn1.CCN(C)C([S-])=NN=C(c1ccccn1)c1ccccn1.[Ga+3] [[Ga(Dp4e4mT)2]^+] | 173 | significantly increased oxy-Mb and oxy-Hb oxidation | 
18 to 76 nM | CCN(C)C([S-])=NN=C(c1ccccn1)c1ccccn1.CCN(C)C([S-])=NN=C(c1ccccn1)c1ccccn1.[Ni+2] [[Ni(Dp4e4mT)2]] | 156 | minimal impact | oxy-Hb oxidation, purified oxy-Hb (in words) ([2]; listed as Dp4e4mT Ni(II) complex): low levels of oxy-Hb oxidation
262 to 1570 nM | CCN(C)C([S-])=NN=C(c1ccccn1)c1ccccn1.[Cl-].[Pd+2] [[Pd(Dp4e4mT)Cl]] | 3 | minimal impact | oxy-Hb oxidation, purified oxy-Hb (in words) [2, 4]: low levels of oxy-Hb oxidation; Mean therapeutic index [1, 4]: 3–9
 | CCN(C)C([S-])=NN=C(c1ccccn1)c1ccccn1.CCN(C)C([S-])=NN=C(c1ccccn1)c1ccccn1.[Zn+2] [[Zn(Dp4e4mT)2]] | 156 | significantly increased oxy-Mb and oxy-Hb oxidation | 
